Tests used:
[1] = molecular target: hemagglutinin (HA) of H1N1 A/Korea/01/2009 (Pandemic) (Influenza A virus (A/Korea/01/2009(H1N1)), UniProt C5MQE6)
[2] = molecular target: T1, hemagglutinin (HA) of H1N1 A/Puerto Rico/8/1934 (Influenza A virus (A/Puerto Rico/8/1934(H1N1)), UniProt P03452); type: cell-based
T1 construct: native HA on whole virus (virus antigen, 4 HAU); not purified protein

For `CC(=O)N[C@H]1[C@H]([C@H](O)[C@H](O)CO)O[C@@](OC[C@H]2O[C@@H](O[C@H]3[C@H](O)[C@@H](O)C(O)O[C@@H]3CO)[C@H](O)[C@@H](O)[C@H]2O)(C(=O)O)C[C@@H]1O` (some centres unmarked) [6′-sialyllactose], the MIC [1] was > 200 mM and the MIC [2] was > 200 mM.
